From patent publication US9453031B2, “Chemical entities” (Fundación Centro Nacional de Investigaciones Oncológicas …, priority 2013, dated 2016)

Columns and labels:
[1] = target: ATR (Homo sapiens (Human), UniProt Q13535); test: Cellular ATR inhibition, western blot of CHK1(S345) phosphorylation in hydroxyurea treated cells; format: cell-based; details: HT29 cells
Method: In addition to the selective system described above, Example compounds presented here were screened for their ability to inhibit intracellular ATR using a western blot assay to detect phosphorylation of the ATR substrate CHK1(S345) in hydroxyurea treated cells. HT29 cells are plated at 500,000 cells per well in 6-well plates in RPMI media (Sigma R6504) supplemented with 10% foetal bovine serum (Sigma F7524), Penicillin/Streptomycin solution diluted 1:100 (Gibco 15070-063), and fungizone (Gibco, 15290-018), and allowed to adhere overnight at 37° C. in 5% CO2. Compounds are then added to the cell media from a final concentration of 10 μM in 3-fold serial dilutions and the cells are incubated at 37° C. in 5% CO2. After 15 min, hydroxyurea (Sigma H8627) is added to a final concentration of 2.5 mM. After 30 min of treatment with hydroxyurea, the cells are washed in PBS, lysed adding 50 μl of in protein lysis buffer (50 mM Tris pH 7.5, 150 mM NaCl, 1% IGEPAL CO-630 (Sigma, Ref. 542334-100G-A), Phospho Stop (Roche, Ref. 04906837001) and Complete Mini EDTA free (Roche, Ref. 11836170001)). The protein content of the lysates was determined by the modified method of Bradford (Sigma, Ref. B6916). The proteins were resolved by SDS-PAGE and transferred to nitrocellulose membrane (VWR International Eurolab, Ref. 732-4007). The membranes were incubated overnight at 4° C. with antibodies specific for total CHK1 (Santa Cruz Biotechnology, sc-8404), phosphoserine-345 CHK1 (Cell Signaling Technology #2348) they were washed and then incubated with IRDye800 conjugated anti-mouse (Pierce/Cultek, 35521) and Alexa Fluor 680 goat anti-rabbit IgG secondary antibodies (Invitrogen, A21076). The bands were visualized and quantified using an Odyssey infrared imaging system (Li-Cor Biosciences). The percentage of phosphorylated CHK1 vs total CHK1 in cells treated with hydroxyurea was taken as hundred percent of phosphorylation. The percentage of CHK1 phosphorylation is finally plotted against concentration for each compound and EC50s for intracellular ATR inhibition are calculated using ActivityBase from IDBS.

[2] = target: DNA-PK (Homo sapiens (Human), UniProt P78527); test: DNAPK activity assay (ADP Hunter Plus); format: biochemical; details: 75 μM ATP
Method: The kinase activity was measured by using the commercial ADP Hunter™ Plus assay available from DiscoveRx (#90-0083), which is a homogeneous assay to measure the accumulation of ADP, a universal product of kinase activity. The enzyme, DNA-PK was purchased from Promega (#V5811). The assay was done following the manufacturer recommendations with slight modifications: Mainly the kinase buffer was replace by 15 mM HEPES, pH 7.5, 10 mM MgCl2, 20 mM NaCl, 1 mM EGTA, 0.1 mg/mL BGG, 0.02% Tween 20. The DNA-PK was assayed in a titration experiment to determine the optimal protein concentration for the inhibition assay. To calculate the […] of the Compounds, serial 1:3 dilutions of the compounds were added to the enzyme at a fixed concentration (2 U/μL). The enzyme was preincubated with the inhibitor and 200 μM DNA substrate and then ATP was added to a final 75 μM concentration. Reaction was carried out for 1 hour at 37° C. Reagent A and B were sequentially added to the wells and plates were incubated for 30 min at RT. Fluorescence counts were read in a EnVision instrument (Perkin Elmer) with the recommended settings (550 and 590 nm as excitation and emission wavelengths, respectively).

[3] = target: PI3K (p110α/p85α) (Homo sapiens (Human), UniProt P42336); test: PI3K alpha activity assay (ADP Hunter Plus); format: biochemical; details: 50 μM ATP, 30 μM PIP2; read-out: PI3Kα IC50
Method: The kinase activity was measured by using the commercial ADP Hunter™ Plus assay available from DiscoveRx (#33-016), which is a homogeneous assay to measure the accumulation of ADP, a universal product of kinase activity. […] The reaction was carried out for 1 hour at 25° C. Reagent A and B were sequentially added to the wells and plates were incubated for 30 min at 37° C. Fluorescence counts were read in a Victor instrument (Perkin Elmer) with the recommended settings (544 and 580 nm as excitation and emission wavelengths, respectively).

[4] = target: mTOR (Homo sapiens (Human), UniProt P42345); test: mTOR activity assay (LanthaScreen); format: biochemical
mTOR, sequence (P42345 1360-2549): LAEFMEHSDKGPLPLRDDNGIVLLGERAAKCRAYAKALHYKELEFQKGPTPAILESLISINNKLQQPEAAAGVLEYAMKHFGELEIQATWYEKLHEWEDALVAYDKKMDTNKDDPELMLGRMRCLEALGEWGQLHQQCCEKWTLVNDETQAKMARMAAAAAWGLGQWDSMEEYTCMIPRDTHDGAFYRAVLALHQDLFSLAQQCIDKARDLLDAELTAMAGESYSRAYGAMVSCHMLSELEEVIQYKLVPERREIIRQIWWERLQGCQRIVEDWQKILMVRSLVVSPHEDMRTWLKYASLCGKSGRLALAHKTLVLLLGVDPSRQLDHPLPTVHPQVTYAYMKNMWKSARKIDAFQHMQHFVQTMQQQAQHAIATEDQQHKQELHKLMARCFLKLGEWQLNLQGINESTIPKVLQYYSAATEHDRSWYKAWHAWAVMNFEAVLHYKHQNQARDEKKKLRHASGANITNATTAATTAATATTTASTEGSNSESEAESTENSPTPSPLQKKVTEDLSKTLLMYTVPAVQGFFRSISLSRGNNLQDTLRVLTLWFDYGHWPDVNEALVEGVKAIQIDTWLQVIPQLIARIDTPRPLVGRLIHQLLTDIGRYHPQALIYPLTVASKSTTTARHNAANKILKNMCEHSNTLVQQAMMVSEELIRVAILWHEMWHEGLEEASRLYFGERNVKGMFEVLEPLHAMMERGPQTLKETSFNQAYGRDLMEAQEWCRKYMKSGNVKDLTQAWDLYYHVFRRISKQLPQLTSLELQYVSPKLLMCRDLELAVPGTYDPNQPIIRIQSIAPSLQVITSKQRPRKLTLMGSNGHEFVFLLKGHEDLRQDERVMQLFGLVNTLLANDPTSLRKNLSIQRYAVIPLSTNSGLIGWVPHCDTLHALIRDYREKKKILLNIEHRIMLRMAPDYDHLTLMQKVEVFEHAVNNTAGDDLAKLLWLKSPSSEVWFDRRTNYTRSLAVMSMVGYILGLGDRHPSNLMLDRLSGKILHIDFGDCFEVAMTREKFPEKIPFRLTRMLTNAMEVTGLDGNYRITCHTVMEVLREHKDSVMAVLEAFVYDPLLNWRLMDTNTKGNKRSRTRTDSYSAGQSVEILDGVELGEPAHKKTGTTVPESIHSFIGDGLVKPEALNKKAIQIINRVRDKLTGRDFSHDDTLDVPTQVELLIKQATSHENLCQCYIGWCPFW
Method: The enzymatic mTOR activity was measured using a LanthaScreen™ kinase activity assay (Invitrogen). The enzyme was purchased from Invitrogen (PV4754), as well as the GFP-labelled substrate (4EBP1-GFP; PV4759) and the Tb-antip4EBP1(pThr46) antibody (PV4757). The assay was performed in 50 Mm HEPES buffer, pH 7.5, containing 1.5 mM MnCl2, 10 mM MgCl2, 1 mM EGTA, 2.5 mM DTT and 0.01% Tween-20. The concentration of the assay components were the following: 0.24 nM mTOR kinase, 400 nM 4EBP1-GFP, […] and serial dilutions of the compound (inhibitor) to be evaluated. After 1 h incubation at room temperature, 20 mM EDTA was used to stop the reaction and terbium-labelled antibody (4 nM) added to detect phosphorylated product. The antibody associates with the phosphorylated product resulting in an increased TR-FRET value. The TR-FRET value (a dimensionless number) was calculated as the ratio of the acceptor signal (GFP, emission at 520 nm) to the donor signal (terbium, emission at 495 nm).

ATR, sequence (Q13535 whole entry): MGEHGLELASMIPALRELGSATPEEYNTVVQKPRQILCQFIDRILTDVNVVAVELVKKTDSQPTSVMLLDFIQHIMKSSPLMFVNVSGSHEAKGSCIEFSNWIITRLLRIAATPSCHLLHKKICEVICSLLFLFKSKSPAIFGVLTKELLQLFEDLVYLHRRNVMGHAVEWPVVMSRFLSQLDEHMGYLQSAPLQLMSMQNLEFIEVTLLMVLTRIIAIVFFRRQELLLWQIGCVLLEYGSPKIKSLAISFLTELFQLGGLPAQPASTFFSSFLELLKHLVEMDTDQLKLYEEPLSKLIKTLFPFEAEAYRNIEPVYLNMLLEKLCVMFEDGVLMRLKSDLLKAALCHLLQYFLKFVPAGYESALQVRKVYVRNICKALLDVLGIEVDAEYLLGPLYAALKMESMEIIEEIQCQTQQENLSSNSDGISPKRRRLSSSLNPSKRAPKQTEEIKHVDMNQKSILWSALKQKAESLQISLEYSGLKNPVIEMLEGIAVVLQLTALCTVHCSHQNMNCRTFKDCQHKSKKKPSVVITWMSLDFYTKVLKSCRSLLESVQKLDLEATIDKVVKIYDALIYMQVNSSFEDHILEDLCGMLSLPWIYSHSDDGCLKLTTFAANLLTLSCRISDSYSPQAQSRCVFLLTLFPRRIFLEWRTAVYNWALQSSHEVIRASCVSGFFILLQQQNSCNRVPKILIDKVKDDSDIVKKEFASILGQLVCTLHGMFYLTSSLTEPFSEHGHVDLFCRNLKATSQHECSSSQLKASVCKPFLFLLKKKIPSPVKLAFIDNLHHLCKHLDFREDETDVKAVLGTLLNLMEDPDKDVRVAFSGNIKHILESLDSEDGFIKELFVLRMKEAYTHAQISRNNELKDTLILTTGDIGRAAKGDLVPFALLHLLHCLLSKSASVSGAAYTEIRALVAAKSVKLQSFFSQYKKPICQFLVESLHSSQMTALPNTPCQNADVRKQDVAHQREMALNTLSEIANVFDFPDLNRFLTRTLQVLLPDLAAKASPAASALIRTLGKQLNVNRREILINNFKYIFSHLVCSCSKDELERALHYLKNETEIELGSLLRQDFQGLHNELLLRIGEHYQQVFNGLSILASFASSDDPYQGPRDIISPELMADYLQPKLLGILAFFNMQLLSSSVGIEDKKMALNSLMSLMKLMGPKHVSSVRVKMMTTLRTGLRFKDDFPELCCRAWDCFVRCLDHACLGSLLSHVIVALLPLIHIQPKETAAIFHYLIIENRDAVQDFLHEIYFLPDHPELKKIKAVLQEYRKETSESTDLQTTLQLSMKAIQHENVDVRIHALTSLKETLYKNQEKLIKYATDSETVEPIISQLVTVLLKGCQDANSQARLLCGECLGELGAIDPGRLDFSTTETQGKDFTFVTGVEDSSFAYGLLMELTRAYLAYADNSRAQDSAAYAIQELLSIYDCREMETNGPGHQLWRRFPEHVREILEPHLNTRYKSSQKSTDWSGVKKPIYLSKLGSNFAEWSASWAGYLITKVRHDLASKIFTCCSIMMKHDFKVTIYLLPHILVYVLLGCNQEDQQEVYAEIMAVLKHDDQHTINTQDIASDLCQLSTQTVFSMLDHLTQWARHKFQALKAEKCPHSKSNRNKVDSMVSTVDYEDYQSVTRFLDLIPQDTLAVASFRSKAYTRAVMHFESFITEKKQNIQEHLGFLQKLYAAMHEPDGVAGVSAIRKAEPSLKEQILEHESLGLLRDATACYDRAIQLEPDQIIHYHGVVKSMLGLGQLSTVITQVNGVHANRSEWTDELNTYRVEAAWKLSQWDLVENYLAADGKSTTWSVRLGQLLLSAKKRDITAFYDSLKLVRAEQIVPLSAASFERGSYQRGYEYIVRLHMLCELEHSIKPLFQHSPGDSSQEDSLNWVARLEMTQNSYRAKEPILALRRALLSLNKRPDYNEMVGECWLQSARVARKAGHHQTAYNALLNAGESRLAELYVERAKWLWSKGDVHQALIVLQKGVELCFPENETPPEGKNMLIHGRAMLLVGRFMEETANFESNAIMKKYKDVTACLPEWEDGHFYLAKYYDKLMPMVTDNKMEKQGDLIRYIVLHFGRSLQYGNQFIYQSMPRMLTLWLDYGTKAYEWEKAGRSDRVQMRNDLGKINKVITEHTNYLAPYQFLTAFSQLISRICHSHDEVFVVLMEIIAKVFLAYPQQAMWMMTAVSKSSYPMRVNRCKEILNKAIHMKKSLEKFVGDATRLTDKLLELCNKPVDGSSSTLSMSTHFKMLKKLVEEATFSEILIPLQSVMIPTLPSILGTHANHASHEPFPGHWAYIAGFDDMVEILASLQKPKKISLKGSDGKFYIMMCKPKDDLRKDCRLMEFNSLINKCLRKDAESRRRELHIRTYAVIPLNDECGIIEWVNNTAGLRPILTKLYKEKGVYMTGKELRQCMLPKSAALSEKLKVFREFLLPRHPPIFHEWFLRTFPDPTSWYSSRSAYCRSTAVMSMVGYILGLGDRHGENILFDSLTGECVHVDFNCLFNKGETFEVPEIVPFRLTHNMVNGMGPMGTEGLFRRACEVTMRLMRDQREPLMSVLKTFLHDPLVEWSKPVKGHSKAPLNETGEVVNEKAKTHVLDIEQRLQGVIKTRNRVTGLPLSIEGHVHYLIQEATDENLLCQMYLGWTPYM

Row | SMILES | EC50 ([1]; hydroxyurea 2.5 mM) | IC50 [2] | IC50 [3] | IC50 [4] | EC50 ([1]; hydroxyurea […])
1 | CS(=O)(=O)C1(c2nc(-c3cc(C(F)(F)F)cc4[nH]ccc34)nc3c2OC[C@@H]2COCCN32)CCC1 [Example 112] | 100 to 1000 nM | 10000 nM | 19500 nM | 235 nM | –
2 | CC(C)(c1nc(-c2cccc3[nH]ccc23)nc2c1OC[C@H]1COCCN21)S(C)(=O)=O [Example 15] | 100 to 1000 nM | 2860 nM | 1100 nM | 851 nM | –
3 | CC(C)(c1nc(-c2cc(C(F)(F)F)cc3[nH]ccc23)nc2c1OC[C@@H]1COCCN21)S(C)(=O)=O [Example 101] | 100 to 1000 nM | 10000 nM | 12600 nM | 227 nM | –
4 | CNc1nc2cc(Cl)ccc2n1-c1nc2c(c(C3(S(C)(=O)=O)CC3)n1)OC[C@@H]1COCCN21 [Example 86] | – | 10000 nM | 50000 nM | 3410 nM | > 1000 nM
5 | COc1cc(-c2nc3c(c(C(C)(C)S(C)(=O)=O)n2)OC[C@@H]2COCCN32)c2cc[nH]c2c1 [Example 72] | 100 to 1000 nM | 1600 nM | 820 nM | 45.3 nM | –
6 | CC(C)(c1nc(-c2cccc3[nH]ccc23)nc2c1OC[C@@H]1COCCN21)S(=O)(=O)C1CC1 [Example 61] | 100 to 1000 nM | 10000 nM | 3220 nM | 228 nM | –
7 | CS(=O)(=O)C1(c2nc(-c3cccc4[nH]ccc34)nc3c2OCC[C@H]2COCCN32)CCOCC1 [Example 23] | 100 to 1000 nM | 6370 nM | 50000 nM | 10000 nM | –
8 | CS(=O)(=O)C1(c2nc(-c3cc(F)cc4[nH]ccc34)nc3c2OC[C@@H]2COCCN32)CC1 [Example 74] | 100 to 1000 nM | 989 nM | 2240 nM | 152 nM | –
9 | CNc1nc2ccc(C#N)cc2n1-c1nc2c(c(C(C)(C)S(C)(=O)=O)n1)OC[C@@H]1COCCN21 [Example 114] | – | 10000 nM | 50000 nM | 10000 nM | > 1000 nM
10 | CNc1nc2cc(F)ccc2n1-c1nc2c(c(C3(S(C)(=O)=O)CCC3)n1)OC[C@@H]1COCCN21 [Example 96] | – | 10000 nM | 50000 nM | 6080 nM | 100 to 1000 nM
11 | COc1cc(-c2nc3c(c(C4(S(C)(=O)=O)CCOCC4)n2)OC[C@@H]2COCCN32)c2cc[nH]c2c1 [Example 29] | < 100 nM | 25000 nM | 3800 nM | 435 nM | –
12 | CNc1nc2ccccc2n1-c1nc2c(c(C(C)(C)S(C)(=O)=O)n1)OCC[C@@H]1COCCN21 [Example 62] | 100 to 1000 nM | 10000 nM | 16200 nM | 6600 nM | –
13 | CC(C)(c1nc(-c2ccc(F)c3[nH]ccc23)nc2c1OC[C@@H]1COCCN21)S(C)(=O)=O [Example 102] | > 1000 nM | 100 nM | 50000 nM | 1820 nM | –
14 | CNc1nc2ccc(F)cc2n1-c1nc2c(c(C3(S(C)(=O)=O)CCC3)n1)OC[C@@H]1COCCN21 [Example 97] | – | 6800 nM | 50000 nM | 6800 nM | 100 to 1000 nM
15 | Cc1cc2c(-c3nc4c(c(C5(S(C)(=O)=O)CCC5)n3)OC[C@@H]3COCCN43)cccc2[nH]1 [Example 93] | 100 to 1000 nM | 10000 nM | 7440 nM | 117 nM | –
16 | CNc1nc2cc(F)ccc2n1-c1nc2c(c(C(C)(C)S(C)(=O)=O)n1)OC[C@@H]1COCCN21 [Example 82] | – | 10000 nM | 5600 nM | 1590 nM | 100 to 1000 nM
17 | CC(C)(c1nc(-c2cc(F)cc3[nH]ccc23)nc2c1OC[C@@H]1COCCN21)S(C)(=O)=O [Example 71] | < 100 nM | 10000 nM | 1080 nM | 99.3 nM | –
18 | CNc1nc2ccccc2n1-c1nc2c(c(C3(S(C)(=O)=O)CC3)n1)OC[C@@H]1COCCN21 [Example 66] | 100 to 1000 nM | 2410 nM | 7170 nM | 854 nM | –
